Laboratory results taken from ChEMBL document CHEMBL3860050, “Triterpenoids from Momordica balsamina: Reversal of ABCB1-mediated multidrug resistance” (Bioorg Med Chem, 2016).

Assays:
[1] = Antiproliferative activity against mouse L5178Y cells measured after 72 hrs by MTT assay; assay type: functional, cell-based
[2] = Antiproliferative activity against mouse L5178Y cells expressing human MDR1 measured after 72 hrs by MTT assay; assay type: functional, cell-based
[3] = target: T1, ATP-dependent translocase ABCB1 (Homo sapiens, UniProt P08183); assay: Inhibition of MDR1-mediated efflux-pump activity in mouse L5178Y cells expressing human MDR1 assessed as forward scattered light at 20 uM preincubated for 10 mins followed by rhodamine-123 addition measured after 20 mins by flow cytometry (reference value: 455.7 to 509.9); assay type: cell-based
[4] = target: T1, ATP-dependent translocase ABCB1; assay: Inhibition of MDR1-mediated efflux-pump activity in mouse L5178Y cells expressing human MDR1 assessed as side scattered light at 2 uM preincubated for 10 mins followed by rhodamine-123 addition measured after 20 mins by flow cytometry (reference value: 194.6 to 286.4); assay type: cell-based
[5] = target: T1, ATP-dependent translocase ABCB1; assay: Inhibition of MDR1-mediated efflux-pump activity in mouse L5178Y cells expressing human MDR1 assessed as fluorescence activity ratio at 20 uM preincubated for 10 mins followed by rhodamine-123 addition measured after 20 mins by flow cytometry; assay type: cell-based
[6] = target: T1, ATP-dependent translocase ABCB1; assay: Inhibition of MDR1-mediated efflux-pump activity in mouse L5178Y cells expressing human MDR1 assessed as side scattered light at 20 uM preincubated for 10 mins followed by rhodamine-123 addition measured after 20 mins by flow cytometry (reference value: 194.6 to 286.4); assay type: cell-based
[7] = target: T1, ATP-dependent translocase ABCB1; assay: Inhibition of MDR1-mediated efflux-pump activity in mouse L5178Y cells expressing human MDR1 assessed as mean fluorescence intensity at 2 uM preincubated for 10 mins followed by rhodamine-123 addition measured after 20 mins by flow cytometry (reference value: 7.1 to 18.6); assay type: cell-based
[8] = target: T1, ATP-dependent translocase ABCB1; assay: Inhibition of MDR1-mediated efflux-pump activity in mouse L5178Y cells expressing human MDR1 assessed as fluorescence activity ratio at 2 uM preincubated for 10 mins followed by rhodamine-123 addition measured after 20 mins by flow cytometry; assay type: cell-based
[9] = target: T1, ATP-dependent translocase ABCB1; assay: Inhibition of MDR1-mediated efflux-pump activity in mouse L5178Y cells expressing human MDR1 assessed as forward scattered light at 2 uM preincubated for 10 mins followed by rhodamine-123 addition measured after 20 mins by flow cytometry (reference value: 455.7 to 509.9); assay type: cell-based
[10] = target: T1, ATP-dependent translocase ABCB1; assay: Inhibition of MDR1-mediated efflux-pump activity in mouse L5178Y cells expressing human MDR1 assessed as mean fluorescence intensity at 20 uM preincubated for 10 mins followed by rhodamine-123 addition measured after 20 mins by flow cytometry (reference value: 7.1 to 18.6); assay type: cell-based

T1 sequence (P08183 whole entry): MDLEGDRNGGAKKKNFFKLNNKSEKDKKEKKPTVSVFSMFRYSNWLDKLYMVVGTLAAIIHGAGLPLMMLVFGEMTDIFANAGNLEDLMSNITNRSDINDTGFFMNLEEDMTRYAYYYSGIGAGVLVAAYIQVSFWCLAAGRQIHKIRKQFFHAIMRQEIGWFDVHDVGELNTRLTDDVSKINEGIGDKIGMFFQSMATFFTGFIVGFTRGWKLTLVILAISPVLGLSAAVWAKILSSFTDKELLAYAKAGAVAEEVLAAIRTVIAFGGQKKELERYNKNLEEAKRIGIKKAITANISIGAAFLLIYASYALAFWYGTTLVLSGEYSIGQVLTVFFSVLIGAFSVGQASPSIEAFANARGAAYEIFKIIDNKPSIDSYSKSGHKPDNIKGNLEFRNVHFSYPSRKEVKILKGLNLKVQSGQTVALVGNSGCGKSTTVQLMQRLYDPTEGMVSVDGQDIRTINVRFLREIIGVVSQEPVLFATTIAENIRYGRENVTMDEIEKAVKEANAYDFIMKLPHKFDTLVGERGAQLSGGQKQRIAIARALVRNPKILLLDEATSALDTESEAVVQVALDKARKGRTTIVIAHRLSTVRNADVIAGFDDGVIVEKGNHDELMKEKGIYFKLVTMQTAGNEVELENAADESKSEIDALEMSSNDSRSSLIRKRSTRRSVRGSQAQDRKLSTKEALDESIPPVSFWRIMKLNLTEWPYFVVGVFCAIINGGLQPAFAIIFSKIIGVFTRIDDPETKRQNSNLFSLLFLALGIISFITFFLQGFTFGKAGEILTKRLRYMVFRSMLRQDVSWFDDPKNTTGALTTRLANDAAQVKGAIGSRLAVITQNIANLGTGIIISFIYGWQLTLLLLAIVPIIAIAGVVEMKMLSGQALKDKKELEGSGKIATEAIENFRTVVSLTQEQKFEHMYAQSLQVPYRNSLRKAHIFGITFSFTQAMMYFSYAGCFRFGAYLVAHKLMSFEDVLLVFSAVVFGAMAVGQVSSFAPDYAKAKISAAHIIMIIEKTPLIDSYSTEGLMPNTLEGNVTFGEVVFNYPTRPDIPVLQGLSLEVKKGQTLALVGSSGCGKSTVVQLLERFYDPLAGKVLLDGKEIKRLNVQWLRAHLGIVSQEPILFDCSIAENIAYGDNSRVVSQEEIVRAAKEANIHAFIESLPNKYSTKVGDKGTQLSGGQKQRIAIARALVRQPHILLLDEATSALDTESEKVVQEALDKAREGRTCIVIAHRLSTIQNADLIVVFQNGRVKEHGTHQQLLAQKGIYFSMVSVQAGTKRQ

| Compound | IC50 [1] [µM] | IC50 [2] [µM] | Activity [3] | Activity [4] | Ratio [5] | Activity [6] | Flu intensity [7] | Ratio [8] | Activity [9] | Flu intensity [10] |
| --- | --- | --- | --- | --- | --- | --- | --- | --- | --- | --- |
| CO[C@H]1C=C2[C@@H](CC[C@H](O)C2(C)C)[C@]2(C)CC[C@]3(C)[C@@H]([C@H](C)C[C@H](C=C(C)C)OC(=O)c4ccc(Cl)cc4)CC[C@@]3(C)[C@H]12 [KARAVOATE K] | 63.4 | 93.2 | 511.1 | 207 | 1.6 | 210.8 | 10.7 | 1.4 | 517.9 | 12.2 |
| CC(C)=C[C@H](O)C[C@@H](C)[C@H]1CC[C@@]2(C)[C@@H]3[C@@H](O)C=C4[C@@H](CC[C@H](O)C4(C)C)[C@]3(C)CC[C@]12C [BALSAMINOL F] | 8.3 | 20.8 |  | 202.1 |  |  | 20.1 | 2.6 | 490.7 |  |
| C=C(C)[C@@H](O)[C@H](O)C[C@@H](C)[C@H]1CC[C@@]2(C)[C@@H]3[C@@H](O)C=C4[C@@H](CC[C@H](O)[C@]4(C)CO)[C@]3(C)CC[C@]12C [BALSAMINAPENTAOL A] | 13.7 | 29.3 | 429 | 254.7 | 2.9 | 252 | 8.8 | 0.7 | 427.2 | 38.2 |
| CO[C@H]1C=C2[C@@H](CC[C@H](O)C2(C)C)[C@]2(C)CC[C@]3(C)[C@@H]([C@H](C)C[C@H](C=C(C)C)OC(=O)c4ccc([N+](=O)[O-])cc4)CC[C@@]3(C)[C@H]12 [KARAVOATE I] | 29 | 60.4 | 534.1 | 184.1 | 3.9 | 182.9 | 14.3 | 2.1 | 537.3 | 25.9 |
| CO[C@H]1C=C2[C@@H](CC[C@H](O)C2(C)C)[C@]2(C)CC[C@]3(C)[C@@H]([C@H](C)C[C@H](C=C(C)C)OC(=O)CCC(=O)O)CC[C@@]3(C)[C@H]12 | 20.8 | 40.6 | 540.1 | 184.1 | 4.2 | 185.6 | 7.5 | 1.1 | 545.2 | 28 |
| CO[C@H]1C=C2[C@@H](CC[C@H](O)C2(C)C)[C@]2(C)CC[C@]3(C)[C@@H]([C@H](C)C[C@H](C=C(C)C)OC(=O)/C=C/c4ccccc4)CC[C@@]3(C)[C@H]12 [KARAVOATE O] | > 133 | 90 | 505.9 | 197.9 | 1.4 | 206.9 | 10 | 1.3 | 496.9 | 11 |
| C[C@H](C/C=C/C(C)(C)O)[C@H]1CC[C@@]2(C)[C@@H]3[C@@H](O)C=C4[C@@H](CC[C@H](O)C4(C)C)[C@]3(C)C[C@@H](O)[C@]12C [CUCURBALSAMINOL A] | 48.2 | 63.4 | 429 | 254.7 | 2.9 | 252 | 8.8 | 0.7 | 427.2 | 38.2 |
| COc1ccc(C(=O)O[C@H]2CC[C@@H]3C(=C[C@H](OC)[C@@H]4[C@@]3(C)CC[C@]3(C)[C@@H]([C@H](C)C[C@H](C=C(C)C)OC(=O)c5ccc(OC)cc5)CC[C@@]43C)C2(C)C)cc1 [KARAVOATE N] | 74.6 | > 133 | 548.9 | 184.1 | 1.4 | 186.7 | 6.3 | 0.9 | 528.1 | 9.7 |
| CCCC(=O)O[C@H]1CC[C@@H]2C(=C[C@H](OC)[C@@H]3[C@@]2(C)CC[C@]2(C)[C@@H]([C@H](C)C[C@H](C=C(C)C)OC(=O)CCC)CC[C@@]32C)C1(C)C [KARAVOATE F] | 93.2 | > 133 | 541 | 218.3 | 1.6 | 218.7 | 10.8 | 1.4 | 542.6 | 12.3 |
| CC(=O)O[C@H]1C=C2[C@@H](CC[C@H](OC(C)=O)C2(C)C)[C@]2(C)CC[C@]3(C)[C@@H]([C@H](C)C[C@H](C=C(C)C)OC(C)=O)CC[C@@]3(C)[C@H]12 [TRIACETYLBALSAMINOL F] | > 133 | > 133 | 533.5 | 182.1 | 15 | 179.9 | 20 | 3 | 541.9 | 100.6 |
| CO[C@H]1C=C2[C@@H](CC[C@H](OC(=O)CCC(=O)O)C2(C)C)[C@]2(C)CC[C@]3(C)[C@@H]([C@H](C)C[C@H](C=C(C)C)OC(=O)CCC(=O)O)CC[C@@]3(C)[C@H]12 | 16.9 | 46.9 | 546.7 | 184.6 | 5.9 | 187 | 8.2 | 1.3 | 545.8 | 39.5 |
| CC(=O)C[C@@H](C)[C@H]1CC[C@@]2(C)[C@@H]3C(=O)C=C4[C@@H](CC[C@H](O)[C@]4(C)CO)[C@]3(C)CC[C@]12C [BALSAMINOL D] | 27.8 | 67.1 | 434.2 | 254.3 | 1.9 | 256.5 | 10.3 | 1 | 439.9 | 25.9 |
| CC(C)=C[C@@H](C[C@@H](C)[C@H]1CC[C@@]2(C)[C@@H]3[C@@H](OC(=O)c4ccccc4)C=C4[C@@H](CC[C@H](OC(=O)c5ccccc5)C4(C)C)[C@]3(C)CC[C@]12C)OC(=O)c1ccccc1 [TRIBENZOYLBALSAMINOL F] | 74.7 | 87.9 | 538.1 | 188.7 | 1.1 | 181.7 | 7.6 | 1.3 | 524.2 | 7.1 |
| CC(C)=C[C@H](O)C[C@@H](C)[C@H]1CC[C@@]2(C)[C@@H]3C(O[C@H]4O[C@@H](CO)[C@H](O)[C@@H](O)[C@@H]4O)C=C4[C@@H](CC[C@H](O)C4(C)C)[C@]3(C)CC[C@]12C (stereo partly specified) | 19.2 | 54.2 | 573 | 235.6 | 2.3 | 236.9 | 10.7 | 1 | 557.9 | 23.6 |
| CO[C@H]1C=C2[C@@H](CC[C@H](OC(=O)c3ccccc3)C2(C)C)[C@]2(C)CC[C@]3(C)[C@@H]([C@H](C)C/C=C/C(C)(C)O)CC[C@@]3(C)[C@H]12 | 108 | 130 | 444.8 | 233.1 | 7.8 | 235.1 | 17.9 | 1 | 454.2 | 140 |
| CO[C@H]1C=C2[C@@H](CC[C@H](OC(=O)c3ccc([N+](=O)[O-])cc3)C2(C)C)[C@]2(C)CC[C@]3(C)[C@@H]([C@H](C)C[C@H](C=C(C)C)OC(=O)c4ccc([N+](=O)[O-])cc4)CC[C@@]3(C)[C@H]12 [KARAVOATE J] | 59.4 | 87.9 | 537.3 | 186.3 | 2.1 | 184.1 | 9.5 | 1.4 | 543.4 | 14.3 |
| CO[C@H]1C=C2[C@@H](CC[C@H](OC(=O)/C=C/c3ccccc3)C2(C)C)[C@]2(C)CC[C@]3(C)[C@@H]([C@H](C)C[C@H](C=C(C)C)OC(=O)/C=C/c4ccccc4)CC[C@@]3(C)[C@H]12 [KARAVOATE P] | > 133 | > 133 | 503 | 191.2 | 2.7 | 177 | 6.9 | 1 | 528 | 18.1 |
